Experimental data from US20100022531A1, “NOVEL COMPOUNDS AS P2X7 MODULATORS AND USES THEREOF” (RENOVIS, INC., priority 2005, published 2010).
Read-outs that look alike come from different tables or passages of the source.

Target: T1, P2X7 receptor (Homo sapiens, UniProt Q99572)
T1 construct: host or cells: THP-1 cells differentiated with LPS and IFN-γ
T1 sequence (Q99572 1-595): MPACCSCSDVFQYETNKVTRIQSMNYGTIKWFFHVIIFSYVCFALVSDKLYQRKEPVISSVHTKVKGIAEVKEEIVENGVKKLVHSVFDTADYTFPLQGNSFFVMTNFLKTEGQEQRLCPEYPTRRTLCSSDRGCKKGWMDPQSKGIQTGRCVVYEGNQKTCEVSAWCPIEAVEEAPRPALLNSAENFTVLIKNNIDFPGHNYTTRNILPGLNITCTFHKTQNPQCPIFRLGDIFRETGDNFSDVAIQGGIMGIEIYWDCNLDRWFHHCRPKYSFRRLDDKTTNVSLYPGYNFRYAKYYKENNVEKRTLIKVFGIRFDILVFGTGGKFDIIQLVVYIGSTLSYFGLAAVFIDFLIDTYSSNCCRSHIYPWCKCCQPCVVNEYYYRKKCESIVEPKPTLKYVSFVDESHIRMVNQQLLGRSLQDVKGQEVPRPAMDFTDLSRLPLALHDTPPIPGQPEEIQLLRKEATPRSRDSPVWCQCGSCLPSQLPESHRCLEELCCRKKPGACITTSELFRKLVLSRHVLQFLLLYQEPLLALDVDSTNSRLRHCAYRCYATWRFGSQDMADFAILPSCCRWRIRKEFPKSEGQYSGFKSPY
Assay: Alternate method for IL-1β release assay (differentiated THP-1 cells, BzATP-stimulated, ELISA)
Format: cell-based
Details: P2X7; for inhibition at 0.3 µM: read-out: IL-1β % inhib @ 0.3 μM; for inhibition at 0.1 µM: read-out: IL-1β % inhib @ 0.1 μM
Experimental: Alternate Method for IL-1β Release Assay
THP-1 cells (ATCC Cat #285-IF-100) are plated in 96 well plates at a concentration of 200,000 cells per well and allowed to differentiate in RPMI-1640 media (ATCC Cat #30-2001) containing 10% FBS, 100 IU/mL penicillin, 100 ug/mL streptomycin, 100 ng/mL LPS and 100 ng/mL IFN-γ for 16 hours. Following differentiation, the cells are treated for an additional 2 hours in RPMI-1640 media containing 100 IU/mL penicillin, 100 ug/mL streptomycin and fresh LPS at 100 ng/mL. The cells are then pretreated for 30 minutes with the compound of interest at the appropriate concentration in RPMI media containing 100 IU/mL penicillin, 100 ug/mL streptomycin. Following the pretreatment 2′,3′-O-(4-benzoylbenzoyl)-adenosine 5′-triphosphate (Sigma Aldrich Cat# B6396) is added to a final concentration of 250 uM and the cells incubated for an additional 45 minutes. 30 uL of cell supernatant is then collected and IL-1β levels determined via ELISA (R&D systems Cat. # HSLB50) according to manufacturers recommendations using the Tecan Safire plate reader. Background adjusted IL-1β levels of drug treated and non-treated cells are used to calculate the percent inhibition.

[1] = 0.3 μM compound (asterisk symbols)
[2] = 0.1 μM compound (symbols + to ++++)
[3] = 0.3 μM compound (symbols * to ****)

For `c1ccc(C(CN2CCc3c(ncnc3NCC34CC5CC(CC(C5)C3)C4)C2)c2ccccc2)cc1` [Compound 164], the inhibition at 0.3 µM [1] was > 75%.
For `O=C(c1ccccc1Cl)N1CCc2c(ncnc2NCC23CC4CC(CC(C4)C2)C3)C1` [Compound 147], the inhibition at 0.3 µM [1] was 0 to 25%.
In the case of `O=C(c1ccc(Cl)cc1Cl)N1CCc2c(ncnc2NCC23CC4CC(CC(C4)C2)C3)C1` [Compound 113], the inhibition at 0.3 µM [1] is reported as > 75%.
`O=S(=O)(c1ccc2c(c1)OCCO2)N1CCc2c(ncnc2NCC23CC4CC(CC(C4)C2)C3)C1` [Compound 57] showed an inhibition at 0.3 µM [1] of 50 to 75%.
Work on `O=C(OCC1CCCO1)N1CCc2c(ncnc2NCC23CC4CC(CC(C4)C2)C3)C1` (stereo not drawn) [Compound 341] yielded an inhibition at 0.1 µM [2] of 50 to 75%.
`O=S(=O)(c1cc(Cl)ccc1F)N1CCc2c(ncnc2NCC23CC4CC(CC(C4)C2)C3)C1` [Compound 62] was tested, and the inhibition at 0.3 µM [1] was 25 to 50%.
`CN(CCc1ccccn1)CC(=O)N1CCc2c(ncnc2NCC2C3CC4CC(C3)CC2C4)C1` (stereo not drawn) [Compound 279] gave an inhibition at 0.3 µM [3] of 50 to 75%.
Molecule `CCCS(=O)(=O)N1CCc2c(ncnc2NCC23CC4CC(CC(C4)C2)C3)C1` [Compound 8] has an inhibition at 0.3 µM [1] of 50 to 75%.
`COc1ccc(OC)c(S(=O)(=O)N2CCc3c(ncnc3NCC34CC5CC(CC(C5)C3)C4)C2)c1` [Compound 72] showed an inhibition at 0.3 µM [1] of 25 to 50%.
For `O=S(=O)(c1ccc(C(F)(F)F)cc1)N1CCc2c(ncnc2NCC23CC4CC(CC(C4)C2)C3)C1` [Compound 58], the inhibition at 0.3 µM [1] was 0 to 25%.
`O=C(c1cccnc1)N1CCc2c(ncnc2NCC23CC4CC(CC(F)(C4)C2)C3)C1` [Compound 322] showed an inhibition at 0.1 µM [2] of 25 to 50%.
Work on `O=C(CN1CCN(c2ccccc2)CC1)N1CCc2c(ncnc2NCC23CC4CC(CC(C4)C2)C3)C1` [Compound 259] yielded an inhibition at 0.3 µM [3] of 50 to 75%.
`COc1ccc(CN(C)CC(=O)N2CCc3c(ncnc3NCC3C4CC5CC(C4)CC3C5)C2)cc1OC` (stereo not drawn) [Compound 296] gave an inhibition at 0.3 µM [3] of 0 to 25%.
In the case of `O=C(OCc1ccccn1)N1CCc2c(ncnc2NCC23CC4CC(CC(C4)C2)C3)C1` [Compound 342], the inhibition at 0.1 µM [2] is reported as 0 to 25%.
Molecule `O=S(=O)(c1cc(F)ccc1F)N1CCc2c(ncnc2NCC23CC4CC(CC(C4)C2)C3)C1` [Compound 60] has an inhibition at 0.3 µM [1] of 25 to 50%.
Molecule `CCc1ccc(C(=O)N2CCc3c(ncnc3NCC34CC5CC(CC(C5)C3)C4)C2)cc1` [Compound 85] has an inhibition at 0.3 µM [1] of 50 to 75%.
`Clc1ccc(CN2CCc3c(ncnc3NCC34CC5CC(CC(C5)C3)C4)C2)cc1` [Compound 212] was tested, and the inhibition at 0.3 µM [3] was > 75%.
For `COc1ccc(CCN(C)CC(=O)N2CCc3c(ncnc3NCC3C4CC5CC(C4)CC3C5)C2)cc1OC` (stereo not drawn) [Compound 297], the inhibition at 0.3 µM [3] was 0 to 25%.
For `O=C(c1ccc(Cl)cc1)N1CCc2c(ncnc2NCC23CC4CC(CC(C4)C2)C3)C1` [Compound 82], the inhibition at 0.3 µM [1] was 25 to 50%.
`COc1cc(F)c(CN2CCc3c(ncnc3NCC34CC5CC(CC(C5)C3)C4)C2)c(F)c1` [Compound 235] was tested, and the inhibition at 0.3 µM [3] was 0 to 25%.
`Cc1noc(C)c1S(=O)(=O)N1CCc2c(ncnc2NCC23CC4CC(CC(C4)C2)C3)C1` [Compound 26] showed an inhibition at 0.3 µM [1] of 50 to 75%.
`N#Cc1ccc(CN2CCc3c(ncnc3NCC34CC5CC(CC(C5)C3)C4)C2)cc1` [Compound 214] was tested, and the inhibition at 0.3 µM [3] was 25 to 50%.
`CN(C)CCCN(C)CC(=O)N1CCc2c(ncnc2NCC2C3CC4CC(C3)CC2C4)C1` (stereo not drawn) [Compound 276] showed an inhibition at 0.3 µM [3] of 0 to 25%.
`O=C(c1cnn(-c2ccccc2)c1C(F)(F)F)N1CCc2c(ncnc2NCC23CC4CC(CC(C4)C2)C3)C1` [Compound 255] was tested, and the inhibition at 0.3 µM [3] was > 75%.
With `O=C(CN1CCC1)N1CCc2c(ncnc2NCC2C3CC4CC(C3)CC2C4)C1` (stereo not drawn) [Compound 283] the inhibition at 0.3 µM [3] was 0 to 25%.
`COc1ccc(C)cc1S(=O)(=O)N1CCc2c(ncnc2NCC23CC4CC(CC(C4)C2)C3)C1` [Compound 71] was tested, and the inhibition at 0.3 µM [1] was 25 to 50%.
`FC12CC3CC(C1)CC(CNc1ncnc4c1CCN(Cc1ccc5c(c1)OCCO5)C4)(C3)C2` [Compound 332] showed an inhibition at 0.1 µM [2] of 0 to 25%.
`Cc1ccc(CN2CCc3c(ncnc3NCC34CC5CC(CC(C5)C3)C4)C2)cc1C` [Compound 196] was tested, and the inhibition at 0.3 µM [1] was 0 to 25%.
With `OC12CC3CC(C1)CC(CNc1ncnc4c1CCN(Cc1ccccc1)C4)(C3)C2` [Compound 326, 3-[(7-Benzyl-5,6,7,8-tetrahydro-pyrido[3,4-d]pyrimidin-4-ylamino)-methyl]-adamantan-1-ol] the inhibition at 0.1 µM [2] was > 75%.
`O=C(COc1ccccc1)N1CCc2c(ncnc2NCC23CC4CC(CC(C4)C2)C3)C1` [Compound 104] was tested, and the inhibition at 0.1 µM (0.1 μM compound (plus symbols)) was 50 to 75%.
For `CCC(CC)CN1CCc2c(ncnc2NCC23CC4CC(CC(C4)C2)C3)C1` [Compound 192], the inhibition at 0.3 µM [1] was > 75%.
`COCCN(C)CC(=O)N1CCc2c(ncnc2NCC2C3CC4CC(C3)CC2C4)C1` (stereo not drawn) [Compound 304] was tested, and the inhibition at 0.3 µM [3] was 25 to 50%.
For `O=C(COCc1ccccc1)N1CCc2c(ncnc2NCC23CC4CC(CC(C4)C2)C3)C1` [Compound 111], the inhibition at 0.3 µM [1] was > 75%.
`c1nc2c(c(NCC34CC5CC(CC(C5)C3)C4)n1)CCN(Cc1ccc3c(c1)OCCO3)C2` [Compound 200] gave an inhibition at 0.3 µM [3] of 0 to 25%.
With `C[C@@H](c1ccccc1)N(C)CC(=O)N1CCc2c(ncnc2NCC2C3CC4CC(C3)CC2C4)C1` (stereo partly drawn) [Compound 315] the inhibition at 0.3 µM [3] was > 75%.
With `CC(C)(C)OC(=O)NCC(=O)N1CCc2c(ncnc2NCC(O)C23CC4CC(CC(C4)C2)C3)C1` (stereo not drawn) [Compound 707, {2-[4-(2-Adamantan-1-yl-2-hydroxy-ethylamino)-5,8-dihydro-6H-pyrido[3,4d]pyrimidin-7-yl]-2-oxo-ethyl}-carbamic acid tert-butyl ester] the inhibition at 0.03 µM (at 0.03 μM (asterisk symbols), read-out: IL-1β % inhib @ 0.3 μM or @ 0.03 μM) was 50 to 75%.
With `COc1ccc(S(=O)(=O)N2CCc3c(ncnc3NCC34CC5CC(CC(C5)C3)C4)C2)cc1` [Compound 10] the inhibition at 0.3 µM [1] was 25 to 50%.
For `COc1ccc(CN(C)CC(=O)N2CCc3c(ncnc3NCC3C4CC5CC(C4)CC3C5)C2)cc1` (stereo not drawn) [Compound 316], the inhibition at 0.3 µM [3] was 25 to 50%.
With `O=S(=O)(c1c(Cl)cccc1Cl)N1CCc2c(ncnc2NCC23CC4CC(CC(C4)C2)C3)C1` [Compound 67] the inhibition at 0.3 µM [1] was > 75%.
With `Fc1ccc(CN2CCc3c(ncnc3NCC34CC5CC(CC(C5)C3)C4)C2)c(F)c1` [Compound 220] the inhibition at 0.3 µM [3] was > 75%.
In the case of `O=S(=O)(c1ccc(F)cc1F)N1CCc2c(ncnc2NCC23CC4CC(CC(C4)C2)C3)C1` [Compound 66], the inhibition at 0.1 µM (0.1 μM compound (plus symbols)) is reported as 25 to 50%.
Molecule `CN(CC(=O)N1CCc2c(ncnc2NCC2C3CC4CC(C3)CC2C4)C1)Cc1ccc(Cl)cc1` (stereo not drawn) [Compound 306] has an inhibition at 0.3 µM [3] of 25 to 50%.
For `O=C(c1cc(F)cc(C(F)(F)F)c1)N1CCc2c(ncnc2NCC23CC4CC(CC(C4)C2)C3)C1` [Compound 122], the inhibition at 0.3 µM [1] was 0 to 25%.
Work on `O=C(CN1CCN(Cc2ccccc2)CC1)N1CCc2c(ncnc2NCC2C3CC4CC(C3)CC2C4)C1` (stereo not drawn) [Compound 271] yielded an inhibition at 0.3 µM [3] of 0 to 25%.
With `O=C(OCc1cscn1)N1CCc2c(ncnc2NCC23CC4CC(CC(C4)C2)C3)C1` [Compound 331] the inhibition at 0.1 µM [2] was 0 to 25%.
With `Fc1ccc(CN2CCc3c(ncnc3NCC34CC5CC(CC(F)(C5)C3)C4)C2)c(F)c1` [Compound 323] the inhibition at 0.1 µM [2] was 50 to 75%.
`O=S(=O)(Cc1ccc(F)cc1)N1CCc2c(ncnc2NCC23CC4CC(CC(C4)C2)C3)C1` [Compound 40] showed an inhibition at 0.3 µM [1] of 0 to 25%.
In the case of `c1cc(CN2CCc3c(ncnc3NCC34CC5CC(CC(C5)C3)C4)C2)c2c(c1)OCO2` [Compound 207], the inhibition at 0.1 µM [2] is reported as > 75%.
Work on `O=C(OCc1ccccc1F)N1CCc2c(ncnc2NCC23CC4CC(CC(C4)C2)C3)C1` [Compound 337] yielded an inhibition at 0.1 µM [2] of 0 to 25%.
With `Cc1ccccc1C(=O)N1CCc2c(ncnc2NCC23CC4CC(CC(C4)C2)C3)C1` [Compound 133] the inhibition at 0.3 µM [1] was 25 to 50%.
For `COc1cccc(S(=O)(=O)N2CCc3c(ncnc3NCC34CC5CC(CC(C5)C3)C4)C2)c1` [Compound 21], the inhibition at 0.3 µM [1] was 50 to 75%.
